The values below come from article PMC6222614, “Disubstituted 4-Chloro-3-nitrophenylthiourea Derivatives: Antimicrobial and Cytotoxic Studies” (Molecules : A Journal of Synthetic Chemistry and Natural …, 2018).

Data set [1] relates to HaCaT cells. The data set is described as follows: Lactate dehydrogenase (LDH) release assay in HaCaT cells. The format is cell-based. As to conditions: 24 h. Here is the method:
Cells were passaged using trypsin-EDTA (Gibco Life Technologies, Carlsbad, CA, USA) and cultured in 24-well plates (2.5 × 10^4 cells per well). Experiments were conducted in DMEM with 2% FBS.
Release of lactate dehydrogenase (LDH) from the cytosol to culture medium is a marker of cell death. The assay was performed after 24 h incubation of HaCaT cells in 24-well plates with investigated concentrations of each compound. The activity of LDH released from the cytosol of damaged cells to the supernatant was measured using the protocol of the cytotoxicity detection kit LDH test described by the manufacturer (Roche Diagnostics, Berlin, Germany). Absorbance was measured at 490 nm using a microplate reader (using Epoch microplate reader, BioTek Inc., Winooski, VT, USA) equipped with Gen5 software (BioTech Instruments, Inc., Biokom, Janki, Polska)
Compounds mediated cytotoxicity expressed as the LDH release (%) was determined by the following equation: [(A test sample—A low control)/(A high control—A low control)] × 100% (A-absorbance); where “low control” were cells in DMEM with 2% FBS without tested compounds, and “high control” were cells incubated in DMEM with 2% FBS with 10% Triton X-100 (100% LDH release).

In a further data set the test system is MT-4 cells. Description: Cytotoxicity against mock-infected MT-4 cells (MTT). The format is cell-based, human. The note with it: concentration reducing viability of mock-infected MT-4 cells by 50%, 96 h. The procedure, abridged:
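Uninfected MT-4 cells (HTLV-1-transformed human CD4+ T cells) seeded at 1 × 10^5 cells/mL in RPMI-1640 with 10% FBS and grown with serially diluted compounds at 37 °C, 5% CO2. Viability read by MTT after 96 h.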

A further data set concerns DU145. The data set is described as follows: Antiproliferative assay (MTT). The format is cell-based, human. As to conditions: prostate carcinoma, concentration reducing cell proliferation by 50%, 96 h. As to the method:
(§1) Cell lines derived from human solid tumors were: Skin melanoma (SK-MEL-28); prostate carcinoma (DU-145). Normal tissues foreskin fibroblasts (CRL-7065) were also used. Cells were seeded at 1 × 10^5 cells/mL in 96 well plates in specific media supplemented with 10% FCS and antibiotics, as above. Cell cultures were then incubated at 37 °C in a humidified, 5% CO2 atmosphere in the absence or presence of serial dilutions of test compounds. Cell viability was determined after 96 h at 37 °C by the MTT method.

The next data set concerns SK-MEL-28. The data set is described as follows: Antiproliferative assay (MTT). As to conditions: skin melanoma, concentration reducing cell proliferation by 50%, 96 h. The format is cell-based, human. As to the method: as §1
A further data set has as its system CRL7065. The data set is described as follows: Antiproliferative assay (MTT), normal cell line. In kind it is cell-based, human. As to conditions: normal foreskin fibroblasts, concentration reducing cell proliferation by 50%, 96 h. As to the method: as §1
A further data set deals with HIV-1 IIIB. Description: Anti-HIV-1 activity: protection of MT-4 cells from virus-induced cytopathogenicity (MTT). In kind it is cell-based, Human Immunodeficiency Virus type-1. As to conditions: 50% protection of MT-4 cells from HIV-1 induced cytopathogenicity, MTT, 4-day incubation; read-out: HIV-1IIIB EC50. The method in brief:
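MT-4 cells (1 × 10^4/well) infected with HIV-1 IIIB at m.o.i. 0.01 (100 CCID50) in presence of serial compound dilutions. Protection from virus-induced cytopathogenicity measured by MTT viability after 4 days at 37 °C.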
In general terms: Cytopathic effects are the visible damage that an infection or toxin causes in cultured cells.

Data set [2] deals with HaCaT cells. The data set is described as follows: Proliferation rate in cultures of HaCaT cells (trypan blue counting). In kind it is cell-based, human. The note with it: lowest concentrations (8 µM for 11 and 13, 37 µM for 25), 48 h. Here is the method: Human immortal keratinocyte cell line from adult human skin (HaCaT) was purchased from American Type Culture Collection (Rockville, MD, USA), and cultured in Dulbecco’s Modified Eagle’s Medium (DMEM), supplemented with antibiotics (penicillin and streptomycin), 10% heat-inactivated FBS-fetal bovine serum (Gibco Life Technologies, Carlsbad, CA, USA) at 37 °C and 5% CO2 atmosphere. Cells were passaged using trypsin-EDTA (Gibco Life Technologies, Carlsbad, CA, USA) and cultured in 24-well plates (2.5 × 10^4 cells per well). Experiments were conducted in DMEM with 2% FBS.
After 48 h incubation with the lowest concentration of the tested compound the increased number of viable cells were assessed by direct counting of cells using trypan blue with a Countess Automated Cell Counter (Invitrogen, Carlsbad, CA, USA). The results are presented as a % of viable and dead cells versus control.

Another data set has as its system MT-4. The data set is described as follows: Antiproliferative assay (MTT). In kind it is cell-based, human. As to conditions: concentration reducing cell proliferation by 50%, 96 h, mean of three determinations. Here is the method:
(§2) Cell lines derived from human hematological tumors were: CD4+ human T-cells containing an integrated HTLV-1 genome (MT-4); CD4+ human acute T-lymphoblastic leukemia (CCRF-CEM); human splenic B-lymphoblastoid cells (WIL-2NS); human acute B-lymphoblastic leukemia (CCRF-SB). Cells were seeded at an initial density of 1 × 10^5 cells/mL in 96 well plates in RPMI-1640 medium supplemented with 10% fetal calf serum (FCS), 100 units/mL penicillin G and 100 μg/mL streptomycin.
as §1

The test system of a further data set is WIL-2NS. Description: Antiproliferative assay (MTT). In kind it is cell-based, human. The note with it: concentration reducing cell proliferation by 50%, 96 h, mean of three determinations. As to the method:
as §2, §1

The next data set concerns CCRF-SB. Description: Antiproliferative assay (MTT). The format is cell-based, human. As to conditions: concentration reducing cell proliferation by 50%, 96 h, mean of three determinations. Here is the method: as §2, §1
The next data set relates to CCRF-CEM. Description: Antiproliferative assay (MTT). In kind it is cell-based, human. As to conditions: concentration reducing cell proliferation by 50%, 96 h, mean of three determinations. As to the method:
as §2, §1

The term CC50 denotes the concentration that lowers cell viability or growth by half. A low value points to greater toxicity to the cells. Usually EC50 stands for the concentration needed to bring the measured effect to its halfway point. `O=[N+]([O-])c1cc(NC(=S)Nc2ccc(Cl)c(Cl)c2)ccc1Cl` [Compound 11]: in the data set on HaCaT cells [1], the “cell mortality (LDH release) increased to” value was found to be 20%. In the data set on HaCaT cells [1] (LDH assay), the “LD10 (concentration at which 10% of cells were dead)” value is 8 µM. In addition, the CC50 in the data set with MT-4 cells amounted to 7.9 µM; in the data set with DU145, 6 µM; in the data set with SK-MEL-28 it was 8.5 µM; with CRL7065 it was 16 µM; in the data set with MT-4 it was 7.9 µM; in the data set with WIL-2NS, 9.9 µM. Moreover, the CC50 in the data set on CCRF-SB turned out to be 8.6 µM; in the data set on CCRF-CEM, 8 µM. Moreover, in the data set with HIV-1 IIIB, the concentration for a half-maximal effect (EC50) was > 7.9 µM. For the same compound, in the data set on HaCaT cells [2], the “inhibition of viable cell proliferation” value is listed as ~65%.
